Measurements reported in PubChem BioAssay AID652113 (The Scripps Research Institute Molecular Screening Center, 2013).

Tested on: PAMPA artificial membrane permeability, LC-MS, 5 h
Assay: PubChem AID 652113
Details: stronger effect = higher value

permeability: 16.5 ×10⁻⁶ cm/s
Compound: COC(=O)c1cc(Br)cnc1N1CCC(NC2CCCCC2)C(O)C1 (stereo unspecified)
